Experimental data published in PubChem BioAssay (NCI).
“And” between values parts separate entries of the source, which are not always exact repeats. Identical values can stand only once.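 Results reflect a 48-hour exposure of cells in 96-well plates to compound at five concentrations. Here, GI50 denotes the concentration required for 50% inhibition of growth. At the TGI there is no net growth.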

Key:
Experiment in all cases: NCI tumour cell line growth inhibition, 48 h
M14 melanoma = system: M14 melanoma
SK-MEL-28 melanoma = system: SK-MEL-28 melanoma
HT29 colon = system: HT29 colon
HCT-15 colon = system: HCT-15 colon
EKVX NSCLC = system: EKVX NSCLC
ACHN renal = system: ACHN renal
UACC-257 melanoma = system: UACC-257 melanoma
HS 578T breast = system: HS 578T breast
RPMI-8226 leukemia = system: RPMI-8226 leukemia
HL-60(TB) leukemia = system: HL-60(TB) leukemia

SMILES	GI50 (M14 melanoma)	TGI (M14 melanoma) [µM]	GI50 (SK-MEL-28 melanoma) [µM]	TGI (SK-MEL-28 melanoma) [µM]	GI50 (HT29 colon) [µM]	TGI (HT29 colon) [µM]	GI50 (HCT-15 colon)	TGI (HCT-15 colon) [µM]	GI50 (EKVX NSCLC) [nM]	TGI (EKVX NSCLC) [µM]	GI50 (ACHN renal)	TGI (ACHN renal) [µM]	GI50 (UACC-257 melanoma) [µM]	TGI (UACC-257 melanoma) [µM]	GI50 (HS 578T breast) [nM]	TGI (HS 578T breast) [µM]	GI50 (RPMI-8226 leukemia)	TGI (RPMI-8226 leukemia) [µM]	GI50 (HL-60(TB) leukemia)	TGI (HL-60(TB) leukemia) [µM]
O=C(Nc1ccc(Cl)c(C(F)(F)F)c1)Nc1ccc(-c2cccnc2)cc1N1CCC(CO)CC1	1930 nM	4.85	2.22	5.71	1.92	4.02	2.32 µM	8.01	1720	> 100	3 µM	> 100	3.47	9.82	2790	8.46	–	–	–	–
Cc1ccc(-c2cc(C(=O)Nc3ccc(S(=O)(=O)N4CCCCC4)cc3)[nH]n2)c(O)c1	–	–	> 100	> 100	> 100	> 100	> 100 µM	> 100	–	–	> 100 µM	> 100	> 100	> 100	> 100000	> 100	> 100 µM	> 100	> 100 µM	> 100
C=CC12CCCCC1CC(C(=O)OC)=C(O)C2 (configuration not stated)	–	> 100	–	> 100	–	> 100	–	–	–	> 100	–	> 100	–	> 100	–	–	–	> 100	–	> 100
CCCCCCOC(=O)CC1=C(C)/C(=C/c2[nH]c(-c3ccc[nH]3)cc2OC)N=C1C	34.2 nM	0.328	–	–	0.0331	1.05	0.0315 µM	1.14	57.6	1.64	0.0663 µM	0.779	0.394	1.51	133	1.17	–	–	0.385 µM	1.76
NC1=NN(c2ccccc2)C(=O)C1C(=O)C(=O)Nc1ccccc1 (configuration not stated)	–	> 100	–	–	–	> 100	–	> 100	–	> 100	–	> 100	–	> 100	–	–	–	> 100	–	> 100
COc1cc(OC)c(C(=O)/C=C/c2ccc(C#N)cc2)c(OC)c1	1070 nM	3.15	1.92	7.61	1.88	8.28	1.05 µM	4.19	2070	> 50	1.29 µM	4.74	3.35	42.2	1930	> 50	1.29 µM	4.92	–	–
COc1ccc2cc3c4cc(OC)c(OC)cc4ccn3c2c1	–	–	–	> 100	–	> 100	–	–	–	> 100	–	> 100	–	> 100	–	–	–	–	–	> 100
COc1cc2c3c(n(CCCN=[N+]=[N-])c(=O)c2cc1OC)-c1ccccc1C3=O	1820 nM	13.9	> 100	> 100	> 100	> 100	27.4 µM	> 100	> 100000	> 100	1.21 µM	4.65	–	–	–	–	6.19 µM	> 100	–	–
CCCCCCCCCCCCCCCCc1c(C(=O)OC)nc(NC#N)[nH]c1=O	–	> 25	–	> 25	–	> 25	–	> 25	–	> 25	–	> 25	–	> 25	–	–	–	> 25	–	> 25
C=C(C)CC(C(=O)O)c1ccc(C)cc1 (configuration not stated)	–	–	–	> 100	–	> 100	–	> 100	–	> 100	–	> 100	–	> 100	–	–	–	> 100	–	–
c1cc[c]([Ge]([O]c2cccc3cccnc23)([c]2ccccc2)[c]2ccccc2)cc1	5630 nM	17.5	3.56	14.3	3.8	10.8	3.56 µM	12.4	3420	12.9	8.83 µM	20.8	3.94	14.5	–	–	2.29 µM	6.77	–	–
C=CCCn1nc(-c2ccccc2)oc1=O	–	> 100	–	> 100	–	> 100	–	> 100	–	> 100	–	> 100	–	> 100	–	–	–	–	–	> 100
O=C(COc1ccccc1)NNc1ccccc1	15200 nM and 13900 nM	171	> 300	> 300	264	> 300	8.88 µM and 12.3 µM	> 300	–	–	12.5 µM and 13.9 µM	> 300	–	–	98300	> 300	68.3 µM and 274 µM	> 300	3.91 µM and 9.54 µM	> 300
O=C1CCCc2ccc([N+](=O)[O-])c(O)c21	–	> 100	–	> 100	–	> 100	–	> 100	–	> 100	–	> 100	–	> 100	–	–	–	–	–	> 100
COc1ccc(OC)c(N2CC(O)=C(c3nc4ccccc4s3)C2=N)c1	> 100000 nM	> 100	49.5	> 100	42.8	> 100	5.22 µM	> 100	67300	> 100	51.6 µM	> 100	> 100	> 100	34500	> 100	35.7 µM	> 100	–	–
O=CN/C=C/c1ccccc1	–	> 100	–	> 100	–	> 100	–	> 100	–	> 100	–	> 100	–	> 100	–	–	–	> 100	–	> 100
CN(C)CC1(C)CC/C(=C\c2ccc(Cl)cc2)C1=O (configuration not stated)	–	> 100	–	> 100	–	> 100	–	> 100	–	–	–	> 100	–	> 100	–	–	–	43.4	–	> 100
CC(=O)N1c2ccccc2N(C(C)=O)C1c1ccc(C2N(C(C)=O)c3ccccc3N2C(C)=O)[nH]1	–	> 100	–	–	–	> 100	–	> 100	–	> 100	–	–	–	> 100	–	–	–	> 100	–	> 100
C[C@]12Cc3conc3C(O)=C1CC[C@@H]1C2CC[C@@]2(C)C1CC[C@@H]2O (some centres not stated)	–	50	–	> 100	–	> 100	–	> 100	–	64.7	–	> 100	–	> 100	–	–	–	20.4	–	10.7
